Publication PMC10141607, “Powerful Avidity with a Limited Valency for Virus-Attachment Blockers on DC-SIGN: Combining Chelation and Statistical Rebinding with Structural Plasticity of the Receptor” (ACS Central Science, 2023)
“And” between values parts separate entries of the source, which are not always exact repeats. Equal entries are not always repeated.

T1: DC-SIGN ECD oriented surface (Homo sapiens, UniProt Q9NNX6)
T1 construct: made in house
T1 sequence (Q9NNX6 59-404 limits assumed): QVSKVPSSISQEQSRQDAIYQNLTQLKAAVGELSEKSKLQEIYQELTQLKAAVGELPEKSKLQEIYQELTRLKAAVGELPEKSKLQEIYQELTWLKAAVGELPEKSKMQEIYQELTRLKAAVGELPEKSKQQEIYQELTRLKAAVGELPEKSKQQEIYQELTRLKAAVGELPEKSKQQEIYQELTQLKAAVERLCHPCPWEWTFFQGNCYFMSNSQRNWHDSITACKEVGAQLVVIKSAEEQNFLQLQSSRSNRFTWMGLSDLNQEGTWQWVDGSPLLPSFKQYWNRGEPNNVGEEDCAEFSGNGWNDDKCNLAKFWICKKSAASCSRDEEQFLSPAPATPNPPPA

T2: DC-SIGN ECD tetramer (Homo sapiens, UniProt Q9NNX6)
T2 sequence (Q9NNX6 59-404 limits assumed): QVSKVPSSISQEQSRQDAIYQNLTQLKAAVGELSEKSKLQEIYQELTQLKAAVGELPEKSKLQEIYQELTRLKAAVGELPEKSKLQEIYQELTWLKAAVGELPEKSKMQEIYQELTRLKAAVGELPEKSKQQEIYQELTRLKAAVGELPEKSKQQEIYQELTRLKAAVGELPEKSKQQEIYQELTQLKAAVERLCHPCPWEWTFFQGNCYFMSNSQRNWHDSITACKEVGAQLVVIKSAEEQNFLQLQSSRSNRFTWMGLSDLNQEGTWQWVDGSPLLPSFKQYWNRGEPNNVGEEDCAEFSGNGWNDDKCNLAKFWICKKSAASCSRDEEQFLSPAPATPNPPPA

T3: DC-SIGN extracellular domain (human), Q9NNX6
T3 chain: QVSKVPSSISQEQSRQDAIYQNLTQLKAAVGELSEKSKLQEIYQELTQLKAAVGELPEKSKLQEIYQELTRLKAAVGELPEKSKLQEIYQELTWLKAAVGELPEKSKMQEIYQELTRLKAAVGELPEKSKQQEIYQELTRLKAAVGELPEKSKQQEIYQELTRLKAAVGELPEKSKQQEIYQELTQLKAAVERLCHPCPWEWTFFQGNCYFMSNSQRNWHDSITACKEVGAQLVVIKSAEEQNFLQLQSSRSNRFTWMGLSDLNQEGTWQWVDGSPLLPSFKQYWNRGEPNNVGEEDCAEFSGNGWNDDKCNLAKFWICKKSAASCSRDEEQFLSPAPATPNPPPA


Columns and labels:
[1] = target: T1, DC-SIGN ECD oriented surface; format: binding; details: for Kd: SPR direct interaction on DC-SIGN ECD oriented surface, 25 mM Tris pH 8, 150 mM NaCl, 4 mM CaCl2, 4% DMSO, read-out: KD app; for ß factor (valency-corrected enhancement factor): from SPR KDapp, compound 3.1 as monovalent reference
DC-SIGN ECD = tested on: DC-SIGN ECD; set-up: method as in PMID 25648900; details: SPR inhibition study (competition experiment); cited from earlier work
DC-SIGN ECD tetramer = target: T2, DC-SIGN ECD tetramer; experiment: Isothermal titration calorimetry (ITC); format: binding; details: 25°C
Method: Thermodynamic parameters of multivalent binding as measured by isothermal titration calorimetry (ITC) were analyzed for compounds 3.2 and 3.6. Usually, ITC should provide, among other parameters, a “real” KD value; however, here we prefer to refer to a KDapp. Indeed, in these ITC experiments, we are not evaluating an affinity (a 1:1 unitary interaction, defined by KD) but rather an avidity phenomenon resulting from cumulative unitary bonds (each of whose individual contributions to the overall avidity cannot be deconvoluted). In addition, this avidity results from several multivalent modalities, a population of binding modes. Thus, the use of KDapp, instead of KD, emphasizes that the values determined here are the result of a complex phenomenon. The ITC binding analysis (Figure 3 and Table 2) is fully in agreement with the other biophysical techniques (see Table 2 for SPR and Figure 2C for FP of 3.6) with KDapp values equal to 58 ± 1 nM and 1.1 ± 0.2 μM for compounds 3.6 and 3.2, respectively. […] Increasing the local concentration close to the site is a major source of avidity generation. The ΔH difference is offset by a more unfavorable entropy for 3.6, which probably originates from the loss of degrees of freedom of construct extremities, six versus two, upon binding. Hydrophobic effect may also contribute, since the hydrophobic rod is shielded better from the solvent by the six units of ligand 1 in 3.6([35]) and exposing the hydrophobic parts and ordering the solvent around them is entropically costly. Combining the enthalpy and entropy effects, the ΔG for the hexavalent ligand improves by 10 kJ/mol. It is interesting to note that a stoichiometry of 1 for the complex with 3.6 is observed, supporting again the chelation mode. On the contrary, a stoichiometry n = 1.5 is observed for 3.2, with a KDapp in the μM range, which is compatible with a mixed chelation and clustering binding mode. […]
This graph is supplementary evidence of the multivalent binding, here chelate binding mode for 3.2, that occur over a DC-SIGN oriented surface.
3. Isothermal titration calorimetric analysis
ITC experiments were performed at 25°C using TA Instrument Nano Isothermal Titration Calorimeter Low volume (Nano ITC LV). Compound 3.6, 3.2 and DC-SIGN ECD were prepared in 25 mM Tris pH 8; 150 mM NaCl, 4 mM CaCl2, 4 % DMSO. Compounds (30 µM of 3.6 or 375 µM of 3.2) were stepwise injected (1.03 µL) to 190 µL of DC-SIGN ECD tetramer (respectively, 30 µM or 48.75 µM) in the cell. The blank titrations (compounds to buffer) were done for subtraction of dilution heat from the integrated data. […]
The free energy changes (∆G) and entropy (∆S) were calculated using equation (2): […]

[2] = target: T3, DC-SIGN extracellular domain (human), …; experiment: AUC; sedimentation velocity; DC-SIGN tetramer 4 uM alone (same peak with 5 nM to 500 nM compound 3.6); monomers to tetramer; details: remark: other sources report otherwise

Molecule	Kd [1]	ß factor (valency-corrected enhancement factor) [1]	IC50 (DC-SIGN ECD)	further results
O=C(NCc1ccc(CO)cc1)C1CC(OCCn2cc(COCC(COCCOCCn3cc(-c4cc(OCCOCCO)c(-c5cn(CCOCCOCC(COCc6cn(CCOC7CC(C(=O)NCc8ccc(CO)cc8)C(C(=O)NCc8ccc(CO)cc8)CC7OC7OC(CO)C(O)C(O)C7O)nn6)(COCc6cn(CCOC7CC(C(=O)NCc8ccc(CO)cc8)C(C(=O)NCc8ccc(CO)cc8)CC7OC7OC(CO)C(O)C(O)C7O)nn6)COCc6cn(CCOC7CC(C(=O)NCc8ccc(CO)cc8)C(C(=O)NCc8ccc(CO)cc8)CC7OC7OC(CO)C(O)C(O)C7O)nn6)nn5)cc4OCCOCCO)nn3)(COCc3cn(CCOC4CC(C(=O)NCc5ccc(CO)cc5)C(C(=O)NCc5ccc(CO)cc5)CC4OC4OC(CO)C(O)C(O)C4O)nn3)COCc3cn(CCOC4CC(C(=O)NCc5ccc(CO)cc5)C(C(=O)NCc5ccc(CO)cc5)CC4OC4OC(CO)C(O)C(O)C4O)nn3)nn2)C(OC2OC(CO)C(O)C(O)C2O)CC1C(=O)NCc1ccc(CO)cc1 (stereo not shown) [Compound 1.6]	170 nM and 172 nM	38	–	–
O=C(NCc1ccc(CO)cc1)C1CC(OCCn2cc(-c3cc(OCCOCCO)c(C#Cc4cc(OCCOCCO)c(C#Cc5cc(OCCOCCO)c(-c6cn(CCOC7CC(C(=O)NCc8ccc(CO)cc8)C(C(=O)NCc8ccc(CO)cc8)CC7OC7OC(CO)C(O)C(O)C7O)nn6)cc5OCCOCCO)cc4OCCOCCO)cc3OCCOCCO)nn2)C(OC2OC(CO)C(O)C(O)C2O)CC1C(=O)NCc1ccc(CO)cc1 (stereo not shown) [Compound 3.2]	2400 nM and 2440 nM	8	8000 nM	n (stoichiometry) (DC-SIGN ECD tetramer): 1.5 and 1.56 ± 0.04; ΔH (DC-SIGN ECD tetramer): –85.27 ± 4.48 kJ/mol; TΔS (DC-SIGN ECD tetramer; calculated): –54.4 kJ/mol; Kd (DC-SIGN ECD tetramer; one-site binding model, read-out: KDapp): 1100 ± 200 nM
[N-]=[N+]=NCCOC1CC(C(=O)NCc2ccc(CO)cc2)C(C(=O)NCc2ccc(CO)cc2)CC1OC1OC(CO)C(O)C(O)C1O (stereo not shown) [Compound 1]	–	–	270000 nM	–
O=C(NCc1ccc(CO)cc1)C1CC(OCCn2cc(COCC(COCCOCCn3cc(-c4cc(OCCOCCO)c(C#Cc5cc(OCCOCCO)c(-c6cn(CCOCCOCC(COCc7cn(CCOC8CC(C(=O)NCc9ccc(CO)cc9)C(C(=O)NCc9ccc(CO)cc9)CC8OC8OC(CO)C(O)C(O)C8O)nn7)(COCc7cn(CCOC8CC(C(=O)NCc9ccc(CO)cc9)C(C(=O)NCc9ccc(CO)cc9)CC8OC8OC(CO)C(O)C(O)C8O)nn7)COCc7cn(CCOC8CC(C(=O)NCc9ccc(CO)cc9)C(C(=O)NCc9ccc(CO)cc9)CC8OC8OC(CO)C(O)C(O)C8O)nn7)nn6)cc5OCCOCCO)cc4OCCOCCO)nn3)(COCc3cn(CCOC4CC(C(=O)NCc5ccc(CO)cc5)C(C(=O)NCc5ccc(CO)cc5)CC4OC4OC(CO)C(O)C(O)C4O)nn3)COCc3cn(CCOC4CC(C(=O)NCc5ccc(CO)cc5)C(C(=O)NCc5ccc(CO)cc5)CC4OC4OC(CO)C(O)C(O)C4O)nn3)nn2)C(OC2OC(CO)C(O)C(O)C2O)CC1C(=O)NCc1ccc(CO)cc1 (stereo not shown) [Compound 2.6]	140 ± 8 nM	47	–	–
DC-SIGN extracellular domain, Q9NNX6 59-404 (domain or fragment) QVSKVPSSISQEQSRQDAIYQNLTQLKAAVGELSEKSKLQEIYQELTQLKAAVGELPEKSKLQEIYQELTRLKAAVGELPEKSKLQEIYQELTWLKAAVGELPEKSKMQEIYQELTRLKAAVGELPEKSKQQEIYQELTRLKAAVGELPEKSKQQEIYQELTRLKAAVGELPEKSKQQEIYQELTQLKAAVERLCHPCPWEWTFFQGNCYFMSNSQRNWHDSITACKEVGAQLVVIKSAEEQNFLQLQSSRSNRFTWMGLSDLNQEGTWQWVDGSPLLPSFKQYWNRGEPNNVGEEDCAEFSGNGWNDDKCNLAKFWICKKSAASCSRDEEQFLSPAPATPNPPPA	–	–	–	stoichiometry N [2]: 4
